Consider two compounds from patent publication US20100095387A1, “METHODS AND REAGENTS FOR SCREENING NEW DRUGS AND FOR TREATING ION PUMP ASSOCIATED DISORDERS AND DISEASES” (priority 2005, published 2010).

Test [1] concerns layer V neurons in acute cortical slices. As to the kind of experiment: Whole cell current clamp of layer V neurons in acute cortical slices. Type of test: cell-based, mouse.
The target in another test is α3Na+/K+-ATPase (Mus musculus, UniProt Q6PIC6). As to the kind of experiment: Na+ imaging (SBFI-AM) of cultured cortical cells. Type of test: cell-based. To be noted: fragment or ouabain alone; neurons.

For the compound `C=C(C)[C@H]1CN[C@H](C(=O)O)[C@H]1CC(=O)O` [kainic acid, reference compound], in test [1], the action potential frequency is given as 0.6±0.2 Hz and the membrane potential was −56.2±1.3 mV.

As for `C[C@@H]1O[C@@H](O[C@H]2C[C@@H](O)[C@]3(CO)[C@H]4[C@H](O)C[C@]5(C)[C@@H](C6=CC(=O)OC6)CC[C@]5(O)[C@@H]4CC[C@]3(O)C2)[C@H](O)[C@H](O)[C@H]1O` [ouabain, reference compound], on α3Na+/K+-ATPase, the “neuronal intracellular Na+” value is recorded as “increase”.
